Measurements from paper PMC12142043, “Cell-based high-content approach for SARS-CoV-2 neutralization identifies unique monoclonal antibodies and PI3K pathway inhibitors” (Frontiers in Cell and Developmental Biology, 2025).
Counter-ions that a name gives are not always drawn.

Test system: SARS-CoV-2 (USA-WA1/2020) in Calu-3 cells
Assay type: cell-based
Settings: for dsRNA signal, AU High: high dose (10 µM); for dsRNA signal, AU High / dsRNA signal, AU Low: Calu-3, 48 h; for dsRNA signal, AU Low: low dose (100 nM)

Compound | dsRNA signal, AU High | dsRNA signal, AU Low | Reduction of infection in representative images (Figure 4A)
TA 01 | 672.4 AU | 13985.5 AU | –
Cc1c[nH]c2ccccc12 [3-Methylindole] | 0.0 AU | 1602.7 AU | –
COc1cc(N2CCC(N3CCN(C)CC3)CC2)ccc1Nc1ncc(Cl)c(Nc2ccccc2S(=O)(=O)C(C)C)n1 [TAE684 (NVP-TAE684)] | 41419.4 AU | 4182.3 AU | –
C=CC(=O)N1CCC(Oc2cc3c(Nc4ccc(Cl)c(Cl)c4F)ncnc3cc2OC)CC1 [Poziotinib] | 19439.7 AU | 63934.7 AU | –
CCn1c2ccccc2c2cc(Nc3ccnc(NCCCN4CCOCC4)n3)ccc21 [EHop-016] | 0.0 AU | 44568.8 AU | –
CNc1nc(Nc2cnn([C@H]3CCN(C4COC4)C[C@@H]3F)c2Cl)ncc1C(F)(F)F [GNE-9605] | 40803.1 AU | 41939.9 AU | –
COc1ccccc1-c1cc(Nc2cccc(CS(N)(=O)=O)c2)ncn1 [LDC000067] | 31035.0 AU | 20712.1 AU | –
CC(C)N(CCC(=O)c1ccc2ccccc2c1)Cc1ccccc1.Cl [ZM 39923 HCl] | 21395.1 AU | 2858.2 AU | –
CN1C(=O)C(Cc2c[nH]c3ccccc23)NC1=S (stereo not drawn) [Necrostatin-1] | 12590.5 AU | 10276.4 AU | –
Cc1[nH]c(/C=C2\C(=O)Nc3ccc(S(=O)(=O)Cc4c(Cl)cccc4Cl)cc32)c(C)c1C(=O)N1CCC[C@@H]1CN1CCCC1 [PHA-665752] | 34815.2 AU | 11571.8 AU | –
kb NB 142-70 | 958.0 AU | 2847.9 AU | –
CCN(CC)CCCC(C)Nc1nc(C)cc(Nc2ccc3nc(C)cc(N)c3c2)n1 (stereo not drawn) [NSC 23766] | 10192.1 AU | 15408.3 AU | –
CCN1CCN(Cc2ccc(NC(=O)Nc3ccc(Oc4cc(NC)ncn4)cc3)cc2C(F)(F)F)CC1 [AST 487] | 7505.2 AU | 5709.8 AU | –
CNC(=O)c1ccccc1Sc1ccc2c(/C=C/c3ccccn3)n[nH]c2c1 [Axitinib (AG 013736)] | 42600.6 AU | 65444.2 AU | –
NC(=O)c1ncn([C@@H]2O[C@H](CO)[C@@H](O)[C@H]2O)c1N [AICAR] | 10649.1 AU | 34470.9 AU | –
Cc1c(F)cc(C(=O)NC2CC2)cc1-c1ccc(C(=O)NCC(C)(C)C)cn1 [Losmapimod, reference compound] | – | – | poor activity
Oc1ccc(/C=C/c2cc(O)cc(O)c2)cc1 [Resveratrol] | 13503.5 AU | 6902.6 AU | –
O=C(O)c1cc(O)c2c(c1)[C@@H]([C@H]1c3cc(C(=O)O)cc(O)c3C(=O)c3c(O[C@@H]4O[C@H](CO)[C@@H](O)[C@H](O)[C@H]4O)cccc31)c1cccc(O[C@@H]3O[C@H](CO)[C@@H](O)[C@H](O)[C@H]3O)c1C2=O [Sennoside B] | 3953.3 AU | 3310.7 AU | –
CN(C)C(=N)N=C(N)N [Metformin HCl] | 10385.6 AU | 10840.1 AU | –
Nc1nc(N)c(N=O)c(OCC2CCCCC2)n1 [Nu 6027] | 2596.9 AU | 10731.2 AU | –
